{"source": "patent US20060069132A1", "about": "“Azolecarboxamide herbicides” (priority 2004, published 2006)", "key": {"barnyardgrass [1]": {"test_system": "barnyardgrass", "assay": "Test B pre-/postemergence herbicide test", "type": "in vivo, Echinochloa crus-galli", "conditions": "for Barnyardgrass plant response rating: Postemergence, scale 0 (no effect) to 100 (complete control)", "how_it_was_run": "(§1)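 Plants compared with untreated controls 13–15 days post-treatment and given a visual 0–100 injury score. Applications: preemergence to seeds; postemergence at 1- to 4-leaf (2–18 cm); paddy species flooded, 2-leaf stage. Vehicle non-phytotoxic, surfactant included.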"}, "Surinam grass": {"test_system": "Surinam grass", "assay": "Test B pre-/postemergence herbicide test", "type": "in vivo, Urochloa decumbens", "how_it_was_run": "(§2)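 Flooded paddy rice and barnyardgrass were treated at the 2-leaf stage; upland plantings received compound either on sown seed or on 1- to 4-leaf seedlings. All were kept 13–15 days in a greenhouse and scored visually, 0–100, relative to untreated plants.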"}, "cocklebur": {"test_system": "cocklebur", "assay": "Test B pre-/postemergence herbicide test", "type": "in vivo, Xanthium strumarium", "how_it_was_run": "as §1"}, "corn": {"test_system": "corn", "assay": "Test B pre-/postemergence herbicide test", "type": "in vivo, Zea mays", "how_it_was_run": "as §2"}, "large crabgrass": {"test_system": "large crabgrass", "assay": "Test B pre-/postemergence herbicide test", "type": "in vivo, Digitaria sanguinalis", "how_it_was_run": "as §2"}, "giant foxtail": {"test_system": "giant foxtail", "assay": "Test B pre-/postemergence herbicide test", "type": "in vivo, Setaria faberi", "how_it_was_run": "as §2"}, "lambsquarters": {"test_system": "lambsquarters", "assay": "Test B pre-/postemergence herbicide test", "type": "in vivo, Chenopodium album", "how_it_was_run": "as §2"}, "morningglory": {"test_system": "morningglory", "assay": "Test B pre-/postemergence herbicide test", "type": "in vivo, Ipomoea coccinea", "how_it_was_run": "as §1"}, "pigweed": {"test_system": "pigweed", "assay": "Test B pre-/postemergence herbicide test", "type": "in vivo, Amaranthus retroflexus", "how_it_was_run": "as §2"}, "velvetleaf": {"test_system": "velvetleaf", "assay": "Test B pre-/postemergence herbicide test", "type": "in vivo, Abutilon theophrasti", "how_it_was_run": "as §2"}, "wheat": {"test_system": "wheat", "assay": "Test B postemergence herbicide test", "type": "in vivo, Triticum aestivum", "design": "key to Wheat plant response rating: 0 = no effect, 100 = complete control", "how_it_was_run": "(§3)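 Formulated test chemicals went onto postemergence plants measuring 2 to 18 cm, at one to four leaves. For the paddy assay, species had reached two leaves. Scoring took place 13–15 days later by eye, relative to untreated plants, using 0 for no effect up to 100 for full control.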"}, "wild oat": {"test_system": "wild oat", "assay": "Test B postemergence herbicide test", "type": "in vivo, Avena fatua", "how_it_was_run": "as §3"}, "rice": {"test_system": "rice", "assay": "Test B flooded paddy test", "type": "in vivo, Oryza sativa", "conditions": "1000 g ai/ha, scale 0 to 100 (0 no effect, 100 complete control)", "how_it_was_run": "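After treating 2-leaf paddy plants or 2–18 cm postemergence plants (1 to 4 leaves) with formulated chemical, researchers kept them in a greenhouse for 13–15 days. Effects were judged visually versus controls: 0 indicates none, 100 total control.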"}, "ducksalad": {"test_system": "ducksalad", "assay": "Test B flooded paddy test", "type": "in vivo, Heteranthera limosa", "conditions": "1000 g ai/ha, scale 0 to 100 (0 no effect, 100 complete control)", "how_it_was_run": "as §3"}, "barnyardgrass [2]": {"test_system": "barnyardgrass", "assay": "Test B flooded paddy test", "type": "in vivo, Echinochloa crus-galli", "conditions": "1000 g ai/ha, scale 0 to 100 (0 no effect, 100 complete control)", "how_it_was_run": "as §3"}, "[3]": {"conditions": "125 g ai/ha, 0 is no effect, 100 is complete control, preemergence"}, "[4]": {"conditions": "Postemergence, 500 g ai/ha, scale 0 (no effect) to 100 (complete control)"}, "[5]": {"conditions": "postemergence, 125 g ai/ha, scale 0 to 100"}}, "data": [{"smiles": "CCNC(=S)c1cccc(NC(=O)c2nn(C(C)(C)C)nc2C)c1", "note": "[Compound 420]", "values": [{"measurement": "Plant response rating (0 to 100 scale), Barnyardgrass", "setting": "barnyardgrass [1]; [3]", "result": 90}, {"measurement": "Barnyardgrass plant response rating", "setting": "barnyardgrass [1]; 125 g ai/ha", "result": 20}, {"measurement": "Barnyardgrass plant response rating", "setting": "barnyardgrass [1]; 500 g ai/ha", "result": 50}, {"measurement": "Plant response rating (0 to 100 scale), Surinam Grass", "setting": "Surinam grass; [3]", "result": 70}, {"measurement": "Surinam Grass plant response rating", "setting": "Surinam grass; [4]", "result": 30}, {"measurement": "Surinam Grass plant response rating", "setting": "Surinam grass; [5]", "result": 20}, {"measurement": "Plant response rating (0 to 100 scale), Cocklebur", "setting": "cocklebur; [3]", "result": 0}, {"measurement": "Cocklebur plant response rating", "setting": "cocklebur; [4]", "result": 40}, {"measurement": "Cocklebur plant response rating", "setting": "cocklebur; [5]", "result": 10}, {"measurement": "Plant response rating (0 to 100 scale), Corn", "setting": "corn; [3]", "result": 70}, {"measurement": "Corn plant response rating", "setting": "corn; [4]", "result": 20}, {"measurement": "Corn plant response rating", "setting": "corn; [5]", "result": 20}, {"measurement": "Plant response rating (0 to 100 scale), Crabgrass, Large", "setting": "large crabgrass; [3]", "result": 100}, {"measurement": "Crabgrass, Large plant response rating", "setting": "large crabgrass; [4]", "result": 40}, {"measurement": "Crabgrass, Large plant response rating", "setting": "large crabgrass; [5]", "result": 30}, {"measurement": "Plant response rating (0 to 100 scale), Foxtail, Giant", "setting": "giant foxtail; [3]", "result": 80}, {"measurement": "Foxtail, Giant plant response rating", "setting": "giant foxtail; [4]", "result": 30}, {"measurement": "Foxtail, Giant plant response rating", "setting": "giant foxtail; [5]", "result": 20}, {"measurement": "Plant response rating (0 to 100 scale), Lambsquarters", "setting": "lambsquarters; [3]", "result": 100}, {"measurement": "Lambsquarters plant response rating", "setting": "lambsquarters; [4]", "result": 90}, {"measurement": "Lambsquarters plant response rating", "setting": "lambsquarters; [5]", "result": 70}, {"measurement": "Plant response rating (0 to 100 scale), Morningglory", "setting": "morningglory; [3]", "result": 50}, {"measurement": "Morningglory plant response rating", "setting": "morningglory; [4]", "result": 90}, {"measurement": "Morningglory plant response rating", "setting": "morningglory; [5]", "result": 80}, {"measurement": "Plant response rating (0 to 100 scale), Pigweed", "setting": "pigweed; [3]", "result": 100}, {"measurement": "Pigweed plant response rating", "setting": "pigweed; [4]", "result": 70}, {"measurement": "Pigweed plant response rating", "setting": "pigweed; [5]", "result": 60}, {"measurement": "Plant response rating (0 to 100 scale), Velvetleaf", "setting": "velvetleaf; [3]", "result": 50}, {"measurement": "Velvetleaf plant response rating", "setting": "velvetleaf; [4]", "result": 30}, {"measurement": "Velvetleaf plant response rating", "setting": "velvetleaf; [5]", "result": 20}, {"measurement": "Wheat plant response rating", "setting": "wheat; 500 g ai/ha, scale 0 to 100, 0 no effect, 100 complete control, preemergence", "result": 100}, {"measurement": "Wheat plant response rating", "setting": "wheat; [4]", "result": 20}, {"measurement": "Wheat plant response rating", "setting": "wheat; [5]", "result": 10}, {"measurement": "Oat, Wild plant response rating", "setting": "wild oat; [4]", "result": 30}, {"measurement": "Oat, Wild plant response rating", "setting": "wild oat; [5]", "result": 20}, {"measurement": "Rice plant response rating", "setting": "rice", "result": 60}, {"measurement": "Ducksalad plant response rating", "setting": "ducksalad", "result": 80}, {"measurement": "Barnyardgrass plant response rating", "setting": "barnyardgrass [2]", "result": 90}]}]}
